# Measured values reported in patent US11214594B2, “Antimicrobial peptide having synergistic antibacterial effect with antibiotics on multidrug resistant bacteria, and use thereof” (priority 2016, dated 2022).
# Where a SMILES comes first, the peptide text is derived from it.
# Legend:
# MDREC 1238 = type: cell-based, Escherichia coli
# Outline: (§1)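 Broth microdilution in MH medium: bacterial strains diluted to 2×10^6 CFU were mixed with equal volumes of peptide serially diluted twofold in MH medium.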
# E. coli = experiment: MIC of antibiotic during combined treatment with antimicrobial peptide; type: cell-based, Escherichia coli; conditions: for Antibiotic MIC, Erythromycin / Antibiotic MIC, Linezolid / Antibiotic MIC, Vancomycin: E. coli
# Outline: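 Antibiotic diluted in MH medium, dispensed per well with peptide; setup repeated with roles reversed; MIC read per combination.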
# S. epidermidis = experiment: microbe, parasite or virus in culture; type: cell-based, Staphylococcus epidermidis
# Outline: as §1
# MDRAB 12035 = experiment: MIC of antibiotic during combined treatment with antimicrobial peptide; type: cell-based, Acinetobacter baumannii
# Outline: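 Antibiotic MIC came from antibiotic dilutions added to bacteria (2×10^6 CFU/ml, MH medium) already combined with peptide serially diluted 2:1 from its own MIC. Swapping the roles of the two agents gave the peptide MIC.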
# [1] = peptide treatment concentration 1 μg/ml
# [2] = peptide treatment concentration 2 μg/ml
# [3] = peptide treatment concentration 4 μg/ml
# [4] = peptide treatment concentration 6 μg/ml
# [5] = peptide treatment concentration 8 μg/ml
# [6] = peptide treatment concentration 16 μg/ml
structure (smiles),measurement,setting,value
"CC[C@H](C)[C@H](NC(=O)[C@H](CCCCN)NC(=O)[C@H](Cc1c[nH]c2ccccc12)NC(=O)[C@@H](N)CCCNC(=N)N)C(=O)N[C@@H](Cc1ccccc1)C(=O)N[C@@H](CCCCN)C(=O)N[C@@H](CCCCN)C(=O)N[C@H](C(=O)N1CCC[C@H]1C(=O)N[C@@H](CCCCN)C(=O)N[C@@H](Cc1ccccc1)C(=O)N[C@@H](CC(C)C)C(=O)N[C@@H](Cc1c[nH]cn1)C(=O)N[C@@H](CO)C(=O)N[C@@H](CC(C)C)C(=O)N[C@@H](CCCCN)C(=O)N[C@@H](CCCCN)C(=O)N[C@@H](Cc1ccccc1)C(N)=O)[C@@H](C)CC [PapMA-6, RWK IFK KIP KFL HSL KKF-NH2] (H-RWKIFKKIPKFLHSLKKF-NH2; N-terminus assumed)",Minimal inhibitory concentration MIC,MDREC 1238,64 µg/mL
same,Synergistic effect of antibacterial activity with existing antibiotics compared with PapMA-1,E. coli; E. coli and MDREC1229,higher level than the PapMA-1 peptide
same,"Antibiotic MIC, Erythromycin",E. coli; erythromycin combined with peptide at 1 μg/ml,64 µg/mL
same,"Antibiotic MIC, Erythromycin",E. coli; erythromycin combined with peptide at 2 μg/ml,64 µg/mL
same,"Antibiotic MIC, Erythromycin",E. coli; erythromycin combined with peptide at 4 μg/ml,8 µg/mL
same,"Antibiotic MIC, Erythromycin",E. coli; erythromycin combined with peptide at 6 μg/ml,4 µg/mL
same,"Antibiotic MIC, Erythromycin",E. coli; erythromycin combined with peptide at 8 μg/ml,0.5 µg/mL
same,"Antibiotic MIC, Erythromycin",E. coli; erythromycin combined with peptide at 16 μg/ml,0.25 µg/mL
same,"Antibiotic MIC, Erythromycin",E. coli; erythromycin combined with peptide at 32 μg/ml,0.125 µg/mL
same,"Antibiotic MIC, Erythromycin",E. coli; erythromycin combined with peptide at 64 μg/ml,0 µg/mL
same,"Antibiotic MIC, Linezolid",E. coli; linezolid combined with peptide at 1 μg/ml,>128 µg/mL
same,"Antibiotic MIC, Linezolid",E. coli; linezolid combined with peptide at 2 μg/ml,>128 µg/mL
same,"Antibiotic MIC, Linezolid",E. coli; linezolid combined with peptide at 4 μg/ml,32 µg/mL
same,"Antibiotic MIC, Linezolid",E. coli; linezolid combined with peptide at 6 μg/ml,8 µg/mL
same,"Antibiotic MIC, Linezolid",E. coli; linezolid combined with peptide at 8 μg/ml,8 µg/mL
same,"Antibiotic MIC, Linezolid",E. coli; linezolid combined with peptide at 16 μg/ml,2 µg/mL
same,"Antibiotic MIC, Linezolid",E. coli; linezolid combined with peptide at 32 μg/ml,2 µg/mL
same,"Antibiotic MIC, Linezolid",E. coli; linezolid combined with peptide at 64 μg/ml,0 µg/mL
same,"Antibiotic MIC, Vancomycin",E. coli; vancomycin combined with peptide at 1 μg/ml,>128 µg/mL
same,"Antibiotic MIC, Vancomycin",E. coli; vancomycin combined with peptide at 2 μg/ml,>128 µg/mL
same,"Antibiotic MIC, Vancomycin",E. coli; vancomycin combined with peptide at 4 μg/ml,32 µg/mL
same,"Antibiotic MIC, Vancomycin",E. coli; vancomycin combined with peptide at 6 μg/ml,16 µg/mL
same,"Antibiotic MIC, Vancomycin",E. coli; vancomycin combined with peptide at 8 μg/ml,8 µg/mL
same,"Antibiotic MIC, Vancomycin",E. coli; vancomycin combined with peptide at 16 μg/ml,2 µg/mL
same,"Antibiotic MIC, Vancomycin",E. coli; vancomycin combined with peptide at 32 μg/ml,1 µg/mL
same,"Antibiotic MIC, Vancomycin",E. coli; vancomycin combined with peptide at 64 μg/ml,0 µg/mL
same,Minimal inhibitory concentration MIC,S. epidermidis,>128 µg/mL
same,Erythromycin MIC during combined treatment with peptide,MDRAB 12035; [1],16 µg/mL
same,Linezolid MIC during combined treatment with peptide,MDRAB 12035; [1],128 µg/mL
same,Vancomycin MIC during combined treatment with peptide,MDRAB 12035; [1],>128 µg/mL
same,Erythromycin MIC during combined treatment with peptide,MDRAB 12035; [2],8 µg/mL
same,Linezolid MIC during combined treatment with peptide,MDRAB 12035; [2],32 µg/mL
same,Vancomycin MIC during combined treatment with peptide,MDRAB 12035; [2],128 µg/mL
same,Erythromycin MIC during combined treatment with peptide,MDRAB 12035; [3],4 µg/mL
same,Linezolid MIC during combined treatment with peptide,MDRAB 12035; [3],16 µg/mL
same,Vancomycin MIC during combined treatment with peptide,MDRAB 12035; [3],64 µg/mL
same,Erythromycin MIC during combined treatment with peptide,MDRAB 12035; [4],0.5 µg/mL
same,Linezolid MIC during combined treatment with peptide,MDRAB 12035; [4],8 µg/mL
same,Vancomycin MIC during combined treatment with peptide,MDRAB 12035; [4],8 µg/mL
same,Erythromycin MIC during combined treatment with peptide,MDRAB 12035; [5],0.25 µg/mL
same,Linezolid MIC during combined treatment with peptide,MDRAB 12035; [5],4 µg/mL
same,Vancomycin MIC during combined treatment with peptide,MDRAB 12035; [5],8 µg/mL
same,Erythromycin MIC during combined treatment with peptide,MDRAB 12035; [6],0.125 µg/mL
same,Linezolid MIC during combined treatment with peptide,MDRAB 12035; [6],2 µg/mL
same,Vancomycin MIC during combined treatment with peptide,MDRAB 12035; [6],4 µg/mL
same,Erythromycin MIC during combined treatment with peptide,MDRAB 12035; peptide treatment concentration 32 μg/ml,0.0625 µg/mL
